# Assay results from patent US20210060033A1, “ORALLY ADMINISTERED COMBINATIONS OF BETA-LACTAM ANTIBIOTICS AND AVIBACTAM DERIVATIVES FOR TREATING BACTERIAL INFECTIONS” (priority 2019, published 2021).
# Experiments:
# [1] = tested on: K. pneumoniae 4582; assay: Microbroth MIC, K. pneumoniae 4582; type: cell-based, Klebsiella pneumoniae; conditions: Klebsiella pneumoniae, 4582, read-out: Microbroth MIC
# [2] = tested on: K. pneumoniae 700603; assay: Microbroth MIC, K. pneumoniae 700603; type: cell-based; conditions: Klebsiella pneumoniae; K. pneumoniae 700603 (SHV-18)
# [3] = tested on: K. pneumoniae 4582; assay: Agar MIC, K. pneumoniae 4582; type: cell-based, Klebsiella pneumoniae; conditions: Klebsiella pneumoniae, 4582, read-out: agar MIC
# [4] = tested on: E. coli 470-21711; assay: Agar MIC, E. coli 470-21711; type: cell-based; conditions: Escherichia coli, 47021711; E. coli 470-21711 (CTX-M-15)
# [5] = tested on: E. cloacae 0060; assay: Microbroth MIC, E. cloacae 0060; type: cell-based; conditions: Enterobacter cloacae; E. cloacae 0060 (cAmpC)
# [6] = tested on: K. pneumoniae 700603; assay: Agar MIC, K. pneumoniae 700603; type: cell-based; conditions: Klebsiella pneumoniae; K. pneumoniae 700603 (SHV-18)
# [7] = tested on: E. cloacae 4182; assay: Microbroth MIC, E. cloacae 4182; type: cell-based; conditions: Enterobacter cloacae; E. cloacae 4182 (De-repressed AmpC)
# [8] = tested on: E. cloacae 4182; assay: Agar MIC, E. cloacae 4182; type: cell-based; conditions: Enterobacter cloacae; E. cloacae 4182 (De-repressed AmpC)
# [9] = tested on: E. coli ATCC 25922; assay: Microbroth MIC, E. coli ATCC 25922; type: cell-based; conditions: Escherichia coli, ATCC25922
# [10] = tested on: K. pneumoniae 15160; assay: Agar MIC, K. pneumoniae 15160; type: cell-based; conditions: Klebsiella pneumoniae; K. pneumoniae 15160 (CTX-M-15, CTX-M-2, OXA-10, OXA-1, SHV-11, TEM-1)
# [11] = tested on: K. pneumoniae 908; assay: Microbroth MIC, K. pneumoniae 908; type: cell-based, Klebsiella pneumoniae; conditions: Klebsiella pneumoniae, 908, read-out: Microbroth MIC
# [12] = tested on: E. coli 136-4643; assay: Microbroth MIC, E. coli 136-4643; type: cell-based; conditions: Escherichia coli, 1364643; E. coli 136-4643 (CTX-M-15)
# [13] = tested on: K. pneumoniae 79; assay: Agar MIC, K. pneumoniae 79; type: cell-based, Klebsiella pneumoniae; conditions: Klebsiella pneumoniae, 79, read-out: agar MIC
# [14] = tested on: K. pneumoniae 27144; assay: Agar MIC, K. pneumoniae 27144; type: cell-based; conditions: Klebsiella pneumoniae; K. pneumoniae 27144 (CTX-M-15, OXA-1, OXA-48, SHV-11, TEM-1)
# [15] = tested on: E. cloacae 0065; assay: Microbroth MIC, E. cloacae 0065; type: cell-based; conditions: Enterobacter cloacae; E. cloacae 0065 (cAmpC)
# [16] = tested on: E. cloacae 0002; assay: Microbroth MIC, E. cloacae 0002; type: cell-based, Enterobacter cloacae; conditions: Enterobacter cloacae, 0002, read-out: Microbroth MIC
# [17] = tested on: E. cloacae 4184; assay: Microbroth MIC, E. cloacae 4184; type: cell-based; conditions: Enterobacter cloacae; E. cloacae 4184 (De-repressed AmpC)
# [18] = tested on: K. pneumoniae 19701; assay: Microbroth MIC, K. pneumoniae 19701; type: cell-based, Klebsiella pneumoniae; conditions: Klebsiella pneumoniae, 19701, read-out: Microbroth MIC
# [19] = tested on: K. pneumoniae 908; assay: Agar MIC, K. pneumoniae 908; type: cell-based, Klebsiella pneumoniae; conditions: Klebsiella pneumoniae, 908, read-out: agar MIC
# [20] = tested on: E. coli ATCC 35218; assay: Agar MIC, E. coli ATCC 35218; type: cell-based; conditions: Escherichia coli, ATCC35218; E. coli ATCC 35218 (TEM-1 Quality Control Strain)
# [21] = tested on: K. pneumoniae 27144; assay: Microbroth MIC, K. pneumoniae 27144; type: cell-based; conditions: Klebsiella pneumoniae; K. pneumoniae 27144 (CTX-M-15, OXA-1, OXA-48, SHV-11, TEM-1)
# [22] = tested on: E. coli ATCC 25922; assay: Agar MIC, E. coli ATCC 25922; type: cell-based; conditions: Escherichia coli, ATCC25922; E. coli ATCC 25922 (Wildtype)
# [23] = tested on: E. cloacae 0065; assay: Agar MIC, E. cloacae 0065; type: cell-based; conditions: Enterobacter cloacae; E. cloacae 0065 (cAmpC)
# [24] = tested on: E. coli ATCC 35218; assay: Microbroth MIC, E. coli ATCC 35218; type: cell-based; conditions: Escherichia coli, ATCC35218; E. coli ATCC 35218 (TEM-1 Quality Control Strain)
# [25] = tested on: E. coli 136-4643; assay: Agar MIC, E. coli 136-4643; type: cell-based; conditions: Escherichia coli, 1364643; E. coli 136-4643 (CTX-M-15)
# [26] = tested on: E. cloacae 4184; assay: Agar MIC, E. cloacae 4184; type: cell-based; conditions: Enterobacter cloacae; E. cloacae 4184 (De-repressed AmpC)
# [27] = tested on: E. cloacae 0002; assay: Agar MIC, E. cloacae 0002; type: cell-based, Enterobacter cloacae; conditions: Enterobacter cloacae, 0002, read-out: agar MIC
# [28] = tested on: K. pneumoniae ATCC BAA-1705; assay: Microbroth MIC, K. pneumoniae ATCC BAA-1705; type: cell-based; conditions: Klebsiella pneumoniae, ATCCBAA1705, read-out: Microbroth MIC
# [29] = tested on: K. pneumoniae 79; assay: Microbroth MIC, K. pneumoniae 79; type: cell-based, Klebsiella pneumoniae; conditions: Klebsiella pneumoniae, 79, read-out: Microbroth MIC
# [30] = tested on: K. pneumoniae 19701; assay: One-compartment in vitro infection (chemostat) model, K. pneumoniae 19701; type: cell-based, Klebsiella pneumoniae; conditions: for Average Log10 CFU/mL (+/− Range of Data), 5 × Ceftibuten + Avibactam at 4 mg/L MIC: Ceftibuten 400 mg q8h
# [31] = tested on: E. coli 470-21711; assay: Microbroth MIC, E. coli 470-21711; type: cell-based; conditions: Escherichia coli, 47021711; E. coli 470-21711 (CTX-M-15)
# [32] = tested on: K. pneumoniae 19701; assay: Agar MIC, K. pneumoniae 19701; type: cell-based, Klebsiella pneumoniae; conditions: Klebsiella pneumoniae, 19701, read-out: agar MIC
# [33] = tested on: K. pneumoniae 15160; assay: Microbroth MIC, K. pneumoniae 15160; type: cell-based; conditions: Klebsiella pneumoniae; K. pneumoniae 15160 (CTX-M-15, CTX-M-2, OXA-10, OXA-1, SHV-11, TEM-1)
# [34] = tested on: E. cloacae 0060; assay: Agar MIC, E. cloacae 0060; type: cell-based; conditions: Enterobacter cloacae; E. cloacae 0060 (cAmpC)
# [35] = plasma; cited from earlier work
structure (smiles),measurement,setting,value
"Nc1nc(/C(=C/CC(=O)O)C(=O)N[C@@H]2C(=O)N3C(C(=O)O)=CCS[C@H]23)cs1 [ceftibuten, (6R,7R)-7-((Z)-2-(2-amino-4-thiazolyl)-4-carboxycrotonamido)-8-oxo-5-thia-1-azabicyclo(4.2.0)oct-2-ene-2-carboxylic acid]",MIC,[1],32 µg/mL
same,MIC,[2],0.5 µg/mL
same,MIC,[3],16 µg/mL
same,MIC,[4],32 µg/mL
same,MIC,[5],> 64 µg/mL
same,MIC,[6],0.5 µg/mL
same,MIC,[7],> 64 µg/mL
same,MIC,[8],> 64 µg/mL
same,MIC,"[9]; E. coli ATCC 25922 (Wild type), read-out: MIC",0.5 µg/mL
same,MIC,"[9]; E. coli ATCC 25922 (Wildtype), read-out: Microbroth MIC",0.5 µg/mL
same,MIC,[10],32 µg/mL
same,MIC,[11],32 µg/mL
same,MIC,[12],32 µg/mL
same,MIC,[13],64 µg/mL
same,MIC,[14],32 µg/mL
same,MIC,[15],> 64 µg/mL
same,MIC,[16],32 µg/mL
same,MIC,[17],> 64 µg/mL
same,MIC,[18],64 µg/mL
same,MIC,[19],32 µg/mL
same,MIC,[20],0.125 µg/mL
same,MIC,[21],64 µg/mL
same,MIC,[22],0.5 µg/mL
same,MIC,[23],> 64 µg/mL
same,MIC,[24],0.125 µg/mL
same,MIC,[25],8 µg/mL
same,MIC,[26],> 64 µg/mL
same,MIC,[27],16 µg/mL
same,MIC,[28],16 µg/mL
same,MIC,[29],> 64 µg/mL
same,"Average Log10 CFU/mL (+/− Range of Data), 5 × Ceftibuten + Avibactam at 4 mg/L MIC",[30]; 0 h,0 (0) Log10 CFU/mL
same,"Average Log10 CFU/mL (+/− Range of Data), 5 × Ceftibuten + Avibactam at 4 mg/L MIC",[30]; 24 h,1.67 (1.17) Log10 CFU/mL
same,bacterial burden response over 24 hours,[30]; ceftibuten 200 mg q8h monotherapy,no activity
same,bacterial burden response over 24 hours,[30]; ceftibuten 400 mg q8h monotherapy,did not reduce the bacterial burden
same,MIC,[31],64 µg/mL
same,MIC,[32],32 µg/mL
same,MIC,[33],64 µg/mL
same,MIC,[34],> 64 µg/mL
same,plasma protein binding,[35],65.0%
